According to US12116574B2, “Anti-inflammatory treatment via inhibition of endothelial cell kinesin light chain 1, variant 1 (KLC1C)” (Northwestern University, priority 2016, dated 2024):
“Also recorded” adds a separate entry of the source.

Columns and labels:
Type in all cases: cell-based, human
[1] = tested on: lateral border recycling compartment (LBRC) in HUVEC; assay: Targeted Recycling assay (LBRC recruitment to transmigrating leukocytes); conditions: transduced HUVEC, 8.5 minutes
Method: The Targeted Recycling assay determines whether the LBRC has been recruited to transmigrating leukocytes. Targeted recycling was performed as described previously (ref 5; herein incorporated by reference in its entirety). HUVEC monolayers are incubated with an Fab fragment of P1.1 mAb for 1 h at 37° C. in a CO2 incubator. […] HUVEC are then put on ice and washed with PBS to remove any free unbound Fab, followed by an incubation with an excess of F(ab′)2 fragment of unlabeled goat anti-mouse IgG on ice for 1 h. This saturably binds all of the Fab that is present on the surface of the endothelial junction, but will not enter the LBRC at this temperature. Free antibody is washed away and 2×10^6 PBMCs mixed with Alexa-568-conjugated F(ab′)2 fragment of the same goat […] transmigration to begin. Cells are then put on ice and washed with ice-cold PBS, followed by fixation in 2% paraformaldehyde for 10 min at room temperature.
In this procedure, only PECAM that was originally in the LBRC and recycled to the surface during the transmigration period will be labeled with the fluorescent secondary antibody, since it was protected from the unlabeled secondary antibody during the incubation on ice. The synchronized transmigration for a short time (8 minutes) catches leukocytes early in the act of transmigration before significant constitutive recycling and a corresponding increase in the staining of uninvolved junction occurs.
Confocal fluorescence microscopy is used to image the targeted recycling events. Leukocytes are identified with fluorescently conjugated mAb against CD18 (IB4). […] The number of monocytes in contact with the endothelial monolayer at cell junctions was assessed, and of those, it was determined how many are contacted by membrane from the LBRC. The intensity of fluorescent Goat-anti-mouse mAb was measured to quantify enrichment of recycling LBRC around transmigrating leukocytes. One-pixel-wide lines are drawn along the area surrounding the site of diapedesis. The mean fluorescence intensity in contact with the leukocyte is divided by the average intensity of constitutively recycled PECAM at the adjacent cell border to calculate LBRC enrichment around transmigrating leukocytes. Multiple monolayers were examined until at least one hundred transmigration events are observed for each variable tested. To avoid unintentional bias each leukocyte in contact with the endothelial border is scored, whether or not it has initiated TEM. […] Image processing and quantification of data are performed using Volocity and ImageJ (NIH) image processing software.

HUVEC = assay: Standard one hour Transendothelial Migration (TEM) assay on transduced HUVEC
Method: (§1) 293A cells were grown on 100 mm dishes to 70-90% confluency and then transfected with adenoviral constructs using Lipofectamine 2000 for delivery. Amplified virus that expressed KHC and KLC knockdown and rescue constructs was purified and used to in transduction of HUVEC for knockdown and rescue experiments (VIRAPOWER Adenoviral Expression System).
The TEM assay is a quantitative assay designed to assess, using large numbers of transmigration events (more than 300 per variable tested), the effect of various treatments such as knocking down Kinesin-1, on the process of transmigration. As routinely performed in our lab (refs. 19,21; herein incorporated by reference in their entireties), peripheral blood mononuclear cells (PBMC, to assess monocyte transmigration) from healthy volunteers are purified on a Ficoll density gradient and then washed in Hanks' buffered saline solution (HBSS) plus 0.1% human serum albumin. Following this wash, they are resuspended in Medium 199 plus 0.1% human serum albumin. 2×10^6 cells are added to confluent TNF-α activated (10 ng/mL, >4 hrs) human umbilical vein endothelial cell (HUVEC) monolayers grown on hydrated collagen gels and incubated for 1 h at 37° C. in a CO2 incubator (ref. 22; herein incorporated by reference in its entirety). This is enough time to allow maximum TEM of control cells (˜90%).
To assess the role of microtubule motors in leukocyte TEM, control and experimentally treated HUVEC are compared side by side in this assay. The co-culture is washed with cold PBS and fixed overnight with 2.5% glutaraldehyde in 0.1 M sodium cacodylate buffer, pH 7.4. TEM is quantitated by Nomarski optics (ref. 21; herein incorporated by reference in its entirety). […] Monocytes are scored in each of several random fields for each monolayer until at least 100 are counted, with 3 replicate monolayers for each condition for a total of over 300 cells per variable tested. To avoid unintentional bias, all cells in the field are counted. Data are expressed as the percent of total leukocytes (attached plus transmigrated) that have transmigrated.

Kinesin-1 = assay: Western Blot of Kinesin-1 in virally-transduced HUVEC; conditions: Kinesin-1 shRNA plus mCherry-tagged rescue construct
Method: as §1
HUVEC were harvested for SDS-PAGE by washing with PBS and adding sample buffer. DNA was sheared by passing through a 27 G needle 10 times and samples were heated to 100° C. for 5 minutes. Samples were separated on 8% polyacrylamide gels and transferred onto polyvinyldifluoride membranes before blocking with 5% milk in PBS with 0.05% Tween and probing with primary antibodies. Blots were incubated with horseradish peroxidase-conjugated secondary antibodies in 5% milk in PBS with 0.05% Tween, then washed, and detected using chemiluminescence and exposure to X-ray film.

Substance | LBRC enrichment around monocytes at endothelial junctions [1] | targeted recycling of the LBRC [1] | targeted recycling of the LBRC ([1]; listed as KLC1 Variant 1 shRNA) | transmigration (TEM) of monocytes (HUVEC) | Kinesin-1 expression after rescue of knockdown (Kinesin-1)
KLC1 variant 1 shRNA: shRNA targeting 3′ noncoding region of KLC1 isoform variant 1 (NM_005552.4); 5′-TGTATTTGTGTCTTTCTAA-3′ (SEQ ID NO: 11) (the letters are possibly those of the target site) | significantly diminished | significantly diminished | significantly decreased | reduced; also recorded: blocks | 
KLC1 variants 2 & 3 shRNA: shRNA targeting KLC1 isoform variants 2 (NM_182923.3) and 3 (NM_001130107.1); 5′-GCATAGGACATGATACTAA-3′ (SEQ ID NO: 12) (the letters are possibly those of the target site) |  |  |  | not | 
Kinesin-1 rescue construct: KHC rescue construct with silent point mutations in the targeted sequences and in-frame mCherry tag at the 3′ end |  | restored targeted recycling to control levels |  | rescued | rescued
